Measurements as given in patent US20240382498A1, “NOVEL INHIBITOR OF HYPE-MEDIATED AMPYLATION” (Purdue Research Foundation, priority 2023, published 2024).

Key:
[1] = test system: HeLa cells; assay: MTT cell viability assay, HeLa; assay type: cell-based, human; conditions: 48 hr
Protocol: The cell lines were procured from ATCC (American Type Culture Collection) and cultured in DMEM (Dulbecco's Modified Eagle Medium) supplemented with 10% FBS (fetal bovine serum) without antibiotics. Cells were grown and maintained in a humidified incubator at 37° C. with 5% CO2. For the MTT assay, cells were trypsinized and harvested at ˜80-90% confluency and seeded in 96 well plates at a density of 1×10^4 cells per well. The seeded cells were incubated overnight and treated with 1 μM, 3 μM, 5 μM, 7 μM, 10 μM, 20 μM, 30 μM or 50 μM (final concentration) of DMSO-dissolved compound for 48 hr. To rule out vehicle induced toxicity, only 0.5% of final DMSO concentration was added to the cells. Post-incubation, the compound treatment was removed and replaced with 0.5 mg/ml (final concentration) of freshly prepared MTT solution. After incubating for 3.5 hr at 37° C., 5% CO2 humidified incubator, MTT was carefully removed without aspirating the formazan crystals and replaced with equivalent volume of DMSO to dissolve the formazan crystals. The plates were then read using a multi-plate reader at 570 nm. The absorbance was recorded and % viability was calculated according to the following equation:
[formula] • where, Abt is the absorbance of compound treated cells and Abc is the absorbance of control cells.

[2] = target: T1, E234G HYPE AMPylation of T229A BiP (Homo sapiens, UniProt Q9BVA6, E234G); assay: Radioactive in-gel T229A BiP AMPylation assay with E234G HYPE and α-32P-ATP; assay type: biochemical; conditions: 10 μM compound
T1 construct: Δ102 (aa 103-458) HYPE constructs (WT, E234G, and E234G/H363A); His6-SUMO (cleaved yes); made in house; host or cells: E. coli BL21-DE3-RILP
T1 sequence (Q9BVA6 103-458 E234G): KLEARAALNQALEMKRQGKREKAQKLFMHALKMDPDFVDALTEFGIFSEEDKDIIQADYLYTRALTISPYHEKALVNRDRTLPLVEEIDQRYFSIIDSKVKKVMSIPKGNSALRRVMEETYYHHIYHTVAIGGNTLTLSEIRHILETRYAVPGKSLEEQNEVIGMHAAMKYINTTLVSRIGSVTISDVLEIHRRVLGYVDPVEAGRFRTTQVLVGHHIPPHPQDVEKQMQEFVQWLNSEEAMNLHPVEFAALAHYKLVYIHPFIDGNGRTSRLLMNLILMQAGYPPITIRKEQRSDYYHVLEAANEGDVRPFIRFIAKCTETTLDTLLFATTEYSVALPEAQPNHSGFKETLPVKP
Protocol: 1 μM of HYPE (final concentration) and (where specified) 5 μM of T229A BiP (final concentration) were preincubated with 10 μM DMSO-dissolved compound (final concentration) or equivalent volume of 100% DMSO at room temperature for 10 min in HTS Buffer. Reactions were run for 10 min at 30° C. and began with the addition of 0.01 μCi/μL α-32P-ATP (final concentration). All reactions were performed according to our previously described protocol for in vitro radioactive AMPylation assays19. Where specified, 5 μM of T229A BiP (final concentration) was added to reactions before the addition of compound.

[3] = target: T2, E234G HYPE (Homo sapiens, UniProt Q9BVA6, E234G); assay: Fluorescence in-gel autoAMPylation assay with E234G HYPE and Fl-ATP; assay type: biochemical; conditions: 10 μM compound
T2 construct: Δ102 (aa 103-458) HYPE constructs (WT, E234G, and E234G/H363A); His6-SUMO (cleaved yes); made in house; host or cells: E. coli BL21-DE3-RILP
T2 sequence (Q9BVA6 103-458 E234G): T1 sequence (Q9BVA6 103-458 E234G)
Protocol: 1 μM of WT HYPE (final concentration) was preincubated with 10 μM DMSO-dissolved compound (final concentration) or equivalent volume of 100% DMSO at room temperature for 10 min. Reactions were run for 20 hr at 30° C. in the dark and began with the addition of 1 μM Fl-ATP (final concentration). Alternatively, E234G HYPE AMPylation reactions were run at 10 min due to its hyperactivity. All other parameters were held constant. All reactions were performed HTS Buffer (50 mM HEPES, 1 mM MgCl2, 0.1% Triton X-100, pH 7.50). All reactions were quenched with 4×SDS loading dye, boiled for 5 min at 95° C., and samples were run on 12% SDS-PAGE gels. Gels were imaged on a Typhoon 9500 FLA imager (General Electric) for fluorescence at 473 nm. Imaged gels were then stained with Coomassie Brilliant Blue, destained, and imaged for protein concentration. Where specified, 5 μM of T229A BiP (final concentration) was added to reactions before the addition of compound.

SMILES: c1cn(-c2ccc(-c3nnc(-c4ccoc4)o3)cn2)cn1 [Compound I2.10]
- cell viability ([1]; HeLa (so in the source), 50 μM): ~60%
- cell viability ([1]; HeLa, up to 50 μM): 100%
- inhibition of T229A BiP AMPylation in gel [2]: inhibitory efficacy against BiP AMPylation was reproducible
- inhibition of E234G HYPE autoAMPylation in gel [3]: consistently perturbs HYPE autoAMPylation
